Values quoted from earlier work in patent US4294824A, “Extracts of the hemopoietic system” (priority 1975, dated 1981).

conditions: lists continue in the following blocks

Compound	SOME SIDE EFFECTS AND MAJOR TOXICITY
COc1cccc2c1C(=O)c1c(O)c3c(c(O)c1C2=O)C[C@@](O)(C(C)=O)C[C@@H]3O[C@H]1C[C@H](N)[C@H](O)[C@H](C)O1 [DAUNORUBICIN, daunorubicin]	Myelosuppression, leucopenia, anaemia
O=P1(N(CCCl)CCCl)NCCCO1 (centres unmarked) [CYCLOPHOSPHAMIDE, cyclophosphamide]	Leucopenia, anorexia, nausea, vomiting. diarrhoea
CN(Cc1cnc2nc(N)nc(N)c2n1)c1ccc(C(=O)N[C@@H](CCC(=O)O)C(=O)O)cc1 [METHOTREXATE, methotrexate]	Myelosuppression, bone marrow depression, leucopenia
Nc1ccn([C@@H]2O[C@H](CO)[C@@H](O)[C@@H]2O)c(=O)n1 [CYTOSINE ARABINOSIDE, cystosine arabinoside]	Myelosuppression, bone marrow depression, nausea
CC[C@]1(O)C[C@H]2CN(CCc3c([nH]c4ccccc34)[C@@](C(=O)OC)(c3cc4c(cc3OC)N(C=O)[C@H]3[C@@](O)(C(=O)OC)[C@H](OC(C)=O)[C@]5(CC)C=CCN6CC[C@]43[C@@H]65)C2)C1 [VINCRISTINE, vincristine]	Peripheral neuropathy, adynamic ileus, myopathy
